For data set [1], the system named is P. berghei ANKA GFP. In words: Adjunctive/adjuvant therapy with artesunate after onset of ECM. It counts as in vivo, C57BL/6 mice. The settings on record: for parasitemia: AS alone 40 mg/Kg/day i.p. d5-d6. The procedure:
Thus, the inventors decided to test Compound 1 as an adjunctive and adjuvant therapy during the acute phase of ECM. […] Therefore, the inventors assessed the combination of Compound 1 and AS on parasite clearance and clinical recovery from ECM. Two AS and Compound 1 combinations were tested: (i) Adjunctive therapy: AS and Compound 1 were administered concomitantly for 2 days after the onset of CM followed by a 3-day treatment with Compound 1 alone, or (ii) Adjuvant therapy: AS was administered on the first 2 days after CM onset followed by Compound 1 administration for 3 more days.
(§1) In order to evaluate the clinical presentation of experimental cerebral malaria, a classification was used in clinical stages from 0 to 4 (see, e.g., Bienvenu et al., Acta Trop (2008) 106:104-8; Franklin et al., Proc Natl Acad Sci USA (2011) 108:3689-94). Briefly, stage 0 indicates no detectable clinical symptoms, stage 1, ruffled fur; stage 2, ruffled fur and unbalancing; stage 3, limb paralysis and respiratory distress and stage 4, convulsions, coma or death. The mice were clinically classified before and after the treatment to evaluate the clinical recovery.
(§2) CORM-2 (Sigma-Aldrich) and Compound 2 were solubilized using 10% dimethyl sulfoxide (DMSO; Sigma-Aldrich) in PBS. CORM-3 and Compound 1 were solubilized in PBS (lx). CORM-2 solution (20 mg/kg of body weight) was administered intravenously (i.v.) according to the chosen schedules. […] As vehicle control, we used a solution of 10% DMSO in PBS administered i.v. The concentrations of CORM-2 used in the present study were based on previous reports (see, e.g., Chen et al. Am. J. Pathol. (2009) 175:422-429; Sun et al., World. J. Gastroenterol. (2008) 14:547-553). Artesunate is presented as a powder of artesunic acid. Artesunate (AS) solution was prepared by dissolving 60 mg of anhydrous artesunic acid in 1 ml of sodium bicarbonate (5%) to form sodium artesunate and then diluted in 5 ml of NaCl (0.9%). An AS solution (i.p.) was administered at 40 mg/Kg/day, as described previously (see, e.g., Bienvenu, Acta Trop (2008) 106:104-108). The AS treatment was started when the infected non-treated mice presented the clinical stage 1 for experimental cerebral malaria.

Data set [2] concerns P. berghei ANKA GFP. It is filed as in vivo, C57BL/6 mice. The settings on record: for hyperparasitemia in protected mice (infected red blood cells): 3 weeks after infection; for effect on parasitemia: treated twice daily days 2-3, observed from about day 5 to day 8 of infection. The procedure:
It has previously been shown that administration of CO by inhalation protects P. berghei ANKA infected C57BL/6 mice from developing ECM (see, e.g., Pamplona et al. Nat Med (2007) 13:703-710). The inventors questioned whether CO-RMs could mimic the protection conferred by CO inhalation in P. berghei ANKA infection. To this end, a known ruthenium CORM, Ru(CO)3Cl2, also referred to herein as CORM-2, was tested on different schedules of treatment and doses in P. berghei ANKA infected C57BL/6 mice (data not shown).
Red blood cells infected with green fluorescent protein (GFP)-transgenic P. berghei ANKA and P. berghei ANKA was used to infect mice (see, e.g., Franke-Fayard et al. Mol Biochem Parasitol (2004) 137:23-33). Cryopreserved parasites were passed once through C57BL/6 or DBA-2 mice before being used to infect experimental animals. C57BL/6 or DBA-2, 6- to 8-wk-old mice (sex matched in each experiment) were infected by intra-peritoneal (i.p.) injection of 10^6 infected RBCs. The infected mice were monitored daily for clinical symptoms of experimental cerebral malaria (ECM) including hemi- or paraplegia, head deviation, tendency to roll over on stimulation, ataxia and convulsions, or ALI, including dyspnea. Mice showing severe signs of ECM at day 5, 6 or 7 post-infection (p.i.) and ALI between days 7 and 9 were sacrificed. Parasitemia was assessed by flow cytometry for mice infected with GFP-expressing P. berghei ANKA, using tail blood, as previously described (see, e.g., Pamplona et al., Nat Med (2007) 13:703-710). Mean parasitemia is expressed as percentage of infected red blood cells. For mice infected with non-GFP P. berghei parasitemia was assessed daily by microscopic counting of Giemsa-stained thin blood smears. Mean parasitemia is expressed as percentage of infected red blood cells. Survival is expressed as percentage.
as §1, §2

For data set [3] the following is noted: cited from earlier work.
The next data set has as its target T1, Hen Egg White Lysozyme C (Gallus gallus, UniProt P00698).
T1 construct: one corresponding to the mass of native lysozyme (14305=calculated mass); from tissue; host or cells: hen egg white
As to the kind of experiment: Hen egg white lysozyme (HEWL) assay, reactivity with proteins by LC-MS. It is filed as binding. The settings on record: 10 equiv in H2O, room temperature, 10 minutes and 1 hour. An excerpt:
The hen egg white lysozyme (HEWL) assay was used to assess the reactivity of Compound 1 in the presence of proteins (see, e.g., Santos-Silva, T. et al. J Am Chem Soc (2011) 133, 1192-1195). This paper describes the interactions of CORM-3 with plasma proteins. CORM-3 reacts rapidily with proteins, losing chloride ion, glycinate, and one CO ligand. […] It was observed that CORM-3 reacts faster and has a much weaker efficacy than Compound 1 in this ECM treatment.
Liquid chromatography-mass spectrometry (LC-MS) was performed on a Micromass Quattro API instrument (ESI-TOF-MS) coupled to a Waters Alliance 2795 HPLC using a MassPREP On-Line Desalting Cartridge. […]
Hen Egg White Lysozyme C (PDB code 3b61; UniProtKB/Swiss-Prot code P00698). […] Quantitative determination of lysozyme-ligand binding in the solution and gas phases by electrospray ionisation mass spectrometry follows Veros et al., Rapid Commun. […] A 50 μL aliquot was analyzed by LC-MS (calculated average isotopic mass of the egg white lysozyme=14305.1).
Santos-Silva and co-workers previously describe CORM-3's reactivity towards proteins and formation of a Ru(II) dicarbonyl-lysozyme complex (see, e.g., Santos-Silva et al., J. Am. Chem. Soc. (2011) 133:1192-1195). […] 50 μL aliquots were collected and analyzed by LC-MS over the reaction time (10 minutes and 1 hour). […]

A further data set has as its system P. falciparum 3D7. As to the kind of experiment: In vitro replication of P. falciparum 3D7. It counts as cell-based, Plasmodium falciparum. Conditions: 48 h. How it is done: (§3) The data led the inventors to wonder whether Compound 1 could have a direct anti-parasitic effect on P. berghei ANKA and P. falciparum parasites. To this end, the effect of Compound 1 and the anti-malarial chloroquine (CQ) was monitored on the in vitro replication of P. falciparum 3D7 isolate and P. berghei ANKA for 48 h and 24 h, respectively.

Data set [4] concerns P. berghei ANKA. In words: In vitro replication of P. berghei ANKA. It counts as cell-based, Plasmodium berghei. The settings on record: 24 h. The procedure:
as §3

Data set [5] deals with P. berghei ANKA. In words: Malaria-associated acute lung injury (M-AALI) model. It counts as in vivo, DBA/2 mice. Conditions: i.v. twice daily.
From the text: The M-AALI model, based on the infection of DBA-2 mice with P. berghei ANKA, is characterized by dyspnea, airway obstruction, hypoxemia, pulmonary exudate and elevated VEGF levels in plasma, followed by death between days 7 and 12 after infection.
Red blood cells infected with green fluorescent protein (GFP)-transgenic P. berghei ANKA and P. berghei ANKA was used to infect mice (see, e.g., Franke-Fayard et al. Mol Biochem Parasitol (2004) 137:23-33). Cryopreserved parasites were passed once through C57BL/6 or DBA-2 mice before being used to infect experimental animals. […] The infected mice were monitored daily for clinical symptoms of experimental cerebral malaria (ECM) including hemi- or paraplegia, head deviation, tendency to roll over on stimulation, ataxia and convulsions, or ALI, including dyspnea. […] Parasitemia was assessed by flow cytometry for mice infected with GFP-expressing P. berghei ANKA, using tail blood, as previously described (see, e.g., Pamplona et al., Nat Med (2007) 13:703-710). Mean parasitemia is expressed as percentage of infected red blood cells. For mice infected with non-GFP P. berghei parasitemia was assessed daily by microscopic counting of Giemsa-stained thin blood smears. Mean parasitemia is expressed as percentage of infected red blood cells. Survival is expressed as percentage. […]
Data set [6] can be described thus: Brain histology (hematoxylin and eosin) in ECM. It counts as in vivo, C57BL/6 mice. Conditions: P. berghei ANKA-infected mice. The procedure:
For evaluation of histological features, mice were deeply anesthetized until cessation of breathing when infected control mice presented signs of ECM or ALI. The livers, lungs, and brains were removed and fixed in 10% buffered formalin for 24-72 h. Four-micron sections were cut from paraffin-embedded tissues and stained with hematoxylin and eosin according to standard procedures. Histological analyses were performed on a Leica microscope DM 2500 (Leica Microsystems).

Data set [7] is described as follows: Quantification of Ru in tissues (bio-distribution). The settings on record: non-infected mice, i.v. The procedure: Tricarbonyldichloro(methylthiogalactopyranoside) Ru(II) [Ru(CO)3Cl2(Gal-S-Me)], also referred to herein as Compound 1, was prepared by reacting CORM-2 with methylthiogalactopyranoside (Gal-S-Me) as described herein (see FIG. 2a and Materials and Methods section). The bio-distribution of Compound 1 in tissues was assessed by quantifying the levels of Ru and CO in the host by the method of Vreman et al., Anal Biochem (2005) 341:280-9. Liver, kidney, spleen, lung and brain tissues of non-infected mice (NI) were analyzed one hour after administration of Compound 1 and the control molecule, Compound 2 (FIG. 2b). […] The spleen is an organ that plays a crucial role in erythrophagocytosis, process important for red blood cell turnover, and recycling of iron. Erythrocytes are hydrolyzed by splenic macrophages, where the degradation of hemoglobin occurs, haem is release, and is catabolized by heme oxygenase-1 into biliverdin, carbon monoxide and ferrous iron (Fe^2+).
The tissue samples were weighed and dried at 80° C. overnight followed by 2 or more hours at 120° C. […] The Ru content was analyzed by an inductively coupled plasma-atomic emission spectrometer (ICP-AES) (model Ultima-Horiba Jobin Yvon, Longjumeau, France) using an external Ru standard method.

Results on five compounds are retold here after US9611286B2, “Ruthenium carbon monoxide releasing molecules and uses thereof” (Alfama, Inc., priority 2011, dated 2017).

T1 sequence (P00698 19-147): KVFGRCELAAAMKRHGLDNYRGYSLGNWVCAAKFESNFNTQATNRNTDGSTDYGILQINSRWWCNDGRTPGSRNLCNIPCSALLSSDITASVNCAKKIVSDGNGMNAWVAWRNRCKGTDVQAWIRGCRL

`C[C@H]1[C@H](OC(=O)CCC(=O)O)O[C@@H]2O[C@@]3(C)CC[C@H]4[C@H](C)CC[C@@H]1[C@@]24OO3` [AS, Artesunate]: the parasitemia with P. berghei ANKA GFP [1] (day 5 post-infection) was found to be 6.8±0.3%. The parasitemia with P. berghei ANKA GFP [1] (day 9 post-infection) was 0.59±0.06%. In the data set with P. berghei ANKA GFP [1] (AS alone d5-d6), the “mice that died with ECM” value stood at 82% and the survival was determined as 18%.

For the compound `[C-]#[O+].[C-]#[O+].[C-]#[O+].[C-]#[O+].[C-]#[O+].[C-]#[O+].[Cl][Ru][Cl].[Cl][Ru][Cl]` [CORM-2, tricarbonyldichlororuthenium(II) dimer], in the data set with P. berghei ANKA GFP [2], the “hyperparasitemia in protected mice (infected red blood cells)” value was > 30 % infected red blood cells and the effect on parasitemia result is given as “statistically significant delay in parasitemia”. Further, in the data set on P. berghei ANKA GFP [2] (CORM-2 20 mg/kg i.v. twice daily between days 2 and 3 after infection), the “death or symptoms of ECM” value was “prevented death or symptoms of ECM in all infected C57BL/6 mice”. Moreover, the “COHb levels in blood after in vivo administration” value in data set [3] is recorded as “do not elevate the carboxyhemoglobin (COHb) levels”.

On to `NCC(=O)O.[C-]#[O+].[C-]#[O+].[C-]#[O+].[Cl][Ru]` [CORM-3, fac-Ru(CO)3C1(glycinate)], for which, in the data set on P. berghei ANKA GFP [2], the “hyperparasitemia in protected mice (infected red blood cells)” value was > 50 % infected red blood cells and the effect on parasitemia result is reported as “statistically significant delay in parasitemia”. The “mice protected from ECM” value in the data set with P. berghei ANKA GFP [2] (i.v. twice daily between days 2 and 3 after infection, equimolar to CORM-2 20 mg/kg) came to 50%. At Hen Egg White Lysozyme C, the “reactivity with HEWL (adduct formation)” value was “reacts faster”. In addition, the “COHb levels in blood after in vivo administration” value in [3] is listed as “do not elevate the carboxyhemoglobin (COHb) levels”.

For `CS(C)=O.CS(C)=O.CS(C)=O.CS(C)=O.[Cl][Ru][Cl]` [Compound 2, Tetrakis(dimethylsulfoxide)dichlororuthenium(II), reference compound], the “inhibition of in vitro growth” value in the data set on P. falciparum 3D7 and with P. berghei ANKA [4] was “absence of inhibitory effect” each time. Also, the “mice that died displaying M-AALI symptoms” value in the data set with P. berghei ANKA [5] is 67%. In addition, the “neuropathologic features in brain sections” value in data set [6] is “evidence of microvascular congestion with pRBC and leukocytes and hemorrhagic foci”.

For “Tricarbonyldichloro(methylthiogalactopyranoside) Ru(II) [Compound 1]”, the “amount of Ru retained in the liver after the last injection, of the Ru administered in all doses” value in data set [7] is on record as “about 13.7±0.6%”.
